According to ChEMBL document CHEMBL1201862, “PubChem BioAssay data set” (2004):
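48-hour exposure; five concentrations; linearly interpolated endpoints. GI50 = concentration required for 50% inhibition of growth.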 Active and inactive are the calls of the source. No stated cut-off is given here; in the data, active = GI50 up to about 1.1 µM and inactive = higher.

Experiments:
Assay in all cases: NCI anticancer screen, dose series, 48 h
HCT-15 = system: HCT-15
MDA-MB-231 = system: MDA-MB-231
EKVX = system: EKVX
UO-31 = system: UO-31
KM12 = system: KM12
BT-549 = system: BT-549
LOX IMVI = system: LOX IMVI
HL-60 = system: HL-60
T47D = system: T47D
CAKI-1 = system: CAKI-1
NCI-H522 = system: NCI-H522
OVCAR-4 = system: OVCAR-4
SR = system: SR
UACC-257 = system: UACC-257
CCRF-CEM = system: CCRF-CEM
SNB-75 = system: SNB-75
NCI/ADR-RES = system: NCI/ADR-RES
UACC-62 = system: UACC-62
RXF 393 = system: RXF 393
Hs-578T = system: Hs-578T

Row | Structure (SMILES) | GI50 (HCT-15) | GI50 (MDA-MB-231) | GI50 (EKVX) | GI50 (UO-31) | GI50 (KM12) | GI50 (BT-549) | GI50 (LOX IMVI) | GI50 (HL-60) | GI50 (T47D) | GI50 (CAKI-1) | GI50 (NCI-H522) | GI50 (OVCAR-4) | GI50 (SR) | GI50 (UACC-257) | GI50 (CCRF-CEM) | GI50 (SNB-75) | GI50 (NCI/ADR-RES) | GI50 (UACC-62) | GI50 (RXF 393) | GI50 (Hs-578T)
1 | CC(=O)O[C@@H]1O[Si](C(C)(C)C)(C(C)(C)C)[C@H](C)[C@H]1C | 29.9 µM | > 100 µM (inactive) | 41.7 µM (inactive) | > 100 µM (inactive) | 30.5 µM (inactive) | > 100 µM (inactive) | 25.8 µM (inactive) | 21.9 µM (inactive) | > 100 µM (inactive) | > 100 µM (inactive) | 56.6 µM (inactive) | > 100 µM (inactive) | > 100 µM (inactive) | > 100 µM (inactive) | 40.6 µM (inactive) | 6.62 µM (inactive) | > 100 µM (inactive) | 83.6 µM (inactive) |  | 
2 | CCN1CCN=C2c3cc(OC)ccc3Nc3c([N+](=O)[O-])ccc1c32 | 1.21 µM | 0.736 µM (active) | 2.12 µM (inactive) |  | 0.713 µM (active) |  |  | 0.516 µM (active) | 3.32 µM (inactive) | 0.485 µM (active) |  | 1.29 µM (inactive) | 0.244 µM (active) | 1.83 µM (inactive) | 0.571 µM (active) | 1.68 µM (inactive) |  | 1.39 µM (inactive) | 0.556 µM (active) | 
3 | C=C1C(=O)C23CC1CCC2C12CO[C@@]3(O)[C@@H](O)C1C(C)(C)C=CC2=O (stereo partly specified) | 0.838 µM | 3.85 µM (inactive) | 5.26 µM (inactive) | 1.73 µM (inactive) | 14.6 µM (inactive) |  | 3.63 µM (inactive) | 0.143 µM (active) | 5.38 µM (inactive) | 2.44 µM (inactive) | 1.24 µM (inactive) |  | 0.186 µM (active) | 0.684 µM (active) | 0.313 µM (active) | 6.03 µM (inactive) | 9.31 µM (inactive) | 0.989 µM (active) | 0.728 µM (active) | 31.6 µM (inactive)
4 | Oc1nc2nc3ccccc3nc2nc1O | > 100 µM | > 100 µM (inactive) | > 100 µM (inactive) | > 100 µM (inactive) | > 100 µM (inactive) |  | > 100 µM (inactive) | > 100 µM (inactive) | > 100 µM (inactive) | > 100 µM (inactive) | > 100 µM (inactive) | > 100 µM (inactive) | > 100 µM (inactive) | > 100 µM (inactive) | > 100 µM (inactive) | 75.2 µM (inactive) | > 100 µM (inactive) | > 100 µM (inactive) | > 100 µM (inactive) | > 100 µM (inactive)
5 | CCn1c(=O)c2nc(SC)sc2n(-c2ccc(C)cc2)c1=O | > 100 µM | > 100 µM (inactive) |  | 32.1 µM (inactive) | 88.9 µM (inactive) |  | > 100 µM (inactive) | > 100 µM (inactive) | > 100 µM (inactive) |  | > 100 µM (inactive) | > 100 µM (inactive) | > 100 µM (inactive) | > 100 µM (inactive) | > 100 µM (inactive) | 29.4 µM (inactive) | > 100 µM (inactive) |  | > 100 µM (inactive) | 21.3 µM (inactive)
6 | CC(=O)[C@@H]1[C@@H](OC(=O)CCC(C)COC2OC(CO)C(O)C(O)C2O)C[C@H]2[C@@H]3CC=C4C[C@@H](OC5OC(CO)C(OC6OC(C)C(O)C(O)C6O)C(O)C5OC5OC(C)C(O)C(O)C5O)CC[C@]4(C)[C@H]3CC[C@]12C (stereo partly specified) |  | > 100 µM (inactive) | > 100 µM (inactive) | > 100 µM (inactive) | > 100 µM (inactive) | > 100 µM (inactive) | > 100 µM (inactive) |  | > 100 µM (inactive) | > 100 µM (inactive) | 35.2 µM (inactive) | > 100 µM (inactive) | > 100 µM (inactive) | > 100 µM (inactive) | > 100 µM (inactive) | > 100 µM (inactive) |  | > 100 µM (inactive) | > 100 µM (inactive) | 
7 | CCCNc1c(Cl)cc(Cl)c2[nH]c3ccccc3c(=O)c12 | 98.6 µM | 77.1 µM (inactive) | 35.6 µM (inactive) | 32.1 µM (inactive) | 27.2 µM (inactive) | 75.3 µM (inactive) | 33.7 µM (inactive) | 16.2 µM (inactive) | > 100 µM (inactive) | 62.5 µM (inactive) | 37.1 µM (inactive) | > 100 µM (inactive) | 58.3 µM (inactive) | 48.3 µM (inactive) | 49.3 µM (inactive) | 31.5 µM (inactive) | > 100 µM (inactive) | 45.5 µM (inactive) |  | 
8 | COc1ccc(/C=C2\CCC(C)C3=C2N=c2s/c(=C/c4cccc(Br)c4)c(=O)n2C3c2ccc(OC)c(OC)c2)cc1OC (stereo unspecified) | > 100 µM | > 100 µM (inactive) | > 100 µM (inactive) |  | > 100 µM (inactive) |  | > 100 µM (inactive) | > 100 µM (inactive) |  | > 100 µM (inactive) |  | > 100 µM (inactive) | > 100 µM (inactive) | > 100 µM (inactive) | > 100 µM (inactive) |  |  | > 100 µM (inactive) | > 100 µM (inactive) | > 100 µM (inactive)
9 | O=C([O-])C1([n+]2c(-c3ccccc3)cc(-c3ccccc3)cc2-c2ccccc2)CC1 | > 100 µM |  | 22.7 µM (inactive) |  |  |  | 82.6 µM (inactive) | 21.8 µM (inactive) | 16 µM (inactive) |  | 54.7 µM (inactive) | 96.8 µM (inactive) | 76.2 µM (inactive) | 25.4 µM (inactive) | 48.2 µM (inactive) | 46.8 µM (inactive) | > 100 µM (inactive) | 21.5 µM (inactive) | > 100 µM (inactive) | 56.8 µM (inactive)
10 | CC(O)c1nc(C#N)c(N)o1 (stereo unspecified) |  | > 100 µM (inactive) | > 100 µM (inactive) | > 100 µM (inactive) | > 100 µM (inactive) |  | > 100 µM (inactive) | > 100 µM (inactive) | > 100 µM (inactive) | > 100 µM (inactive) | > 100 µM (inactive) |  |  | > 100 µM (inactive) | > 100 µM (inactive) | > 100 µM (inactive) | > 100 µM (inactive) | > 100 µM (inactive) |  | > 100 µM (inactive)
11 | O=C(O)c1ccc(Nc2nc3ccc(C(F)(F)F)cc3nc2-c2ccccc2)cc1 | 18.6 µM |  | 29 µM (inactive) | 23.9 µM (inactive) | > 10 µM (inactive) |  | 40.4 µM (inactive) | 20.6 µM (inactive) | 15.6 µM (inactive) | 44.6 µM (inactive) | 28.6 µM (inactive) |  | 28.1 µM (inactive) | 70 µM (inactive) | 36.1 µM (inactive) | 40 µM (inactive) | 28.8 µM (inactive) | 14.6 µM (inactive) | 20.8 µM (inactive) | 46.3 µM (inactive)
12 | CCOC(=O)c1ccc(/N=C2\Sc3nc4ccccc4n3\C2=N\c2ccc(C(=O)OCC)cc2)cc1 | 51.4 µM | 22.5 µM (inactive) | 42.6 µM (inactive) |  | 20.1 µM (inactive) |  | 14.2 µM (inactive) | > 100 µM (inactive) | 48.1 µM (inactive) | 23 µM (inactive) | 24.7 µM (inactive) | 24.3 µM (inactive) |  | 31.5 µM (inactive) | > 100 µM (inactive) |  | 22.1 µM (inactive) | 16.1 µM (inactive) | 28.8 µM (inactive) | 22.6 µM (inactive)
